Measurements from patent US5436254A, “Carbostyril derivatives” (Otsuka Pharmaceutical Company, Ltd., priority 1989, dated 1995).
pIC50: −log10 of the molar value.

Target: V1 receptor (Rattus norvegicus, UniProt P30560)
Assay: biochemical
Assay type: binding
Details: not given

Sequence of V1 receptor (P30560 whole entry): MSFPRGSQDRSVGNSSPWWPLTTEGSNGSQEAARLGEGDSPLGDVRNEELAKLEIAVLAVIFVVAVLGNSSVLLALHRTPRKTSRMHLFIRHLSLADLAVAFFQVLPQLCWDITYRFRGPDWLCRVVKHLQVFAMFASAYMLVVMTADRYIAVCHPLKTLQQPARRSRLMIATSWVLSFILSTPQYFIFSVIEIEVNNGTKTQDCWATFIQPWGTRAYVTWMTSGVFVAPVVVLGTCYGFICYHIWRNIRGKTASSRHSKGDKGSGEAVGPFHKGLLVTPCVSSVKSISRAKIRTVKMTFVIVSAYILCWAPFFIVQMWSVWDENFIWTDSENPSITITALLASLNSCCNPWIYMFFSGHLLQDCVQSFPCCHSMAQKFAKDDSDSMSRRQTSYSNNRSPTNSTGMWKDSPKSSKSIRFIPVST

First: C=CCN(C)c1ccc(C(=O)N2CCC(N3C(=O)CCc4ccccc43)CC2)cc1 [Example 90, 1-{1-[4-(N-Allyl-N-methylamino)benzoyl]-4-piperidinyl)-3,4-dihydrocarbostyril]
Second: O=C(c1ccc(OCCCCO)cc1)N1CCC(N2C(=O)CCc3ccccc32)CC1 [Example 36, 1-{1-[4-(4-Hydroxybutoxy)benzoyl]-4-piperidinyl}-3,4-dihydrocarbostyril]
The pIC50 of the first is 0.47 log units lower: 5.96 for the first, 6.43 for the second.

First: CCOc1ccc(C(=O)N2CCC(N3C(=O)CCc4c(OC(C)=O)cccc43)CC2)c(OC)c1 [Example 309, 5-Acetoxy-1-[1-(2-Methoxy-4-ethoxybenzoyl)-4-piperidinyl]-3,4-dihydrocarbostyril]
Second: COc1ccc(C(=O)N2CCC(N3C(=O)CCc4ccccc43)CC2)c(OCCCC(N)=O)c1 [Example 67, 1-{1-[2-(3-Carbamoylpropoxy)-4-methoxybenzoyl]-4-piperidinyl}-3,4-dihydrocarbostyril]
The pIC50 of the first is 0.81 log units higher: 7.14 for the first, 6.33 for the second. The first is the more potent here.

`Cc1ccc(S(=O)(=O)NCCCOc2ccc(C(=O)N3CCC(N4C(=O)CCc5ccccc54)CC3)cc2)cc1` [Example 174, 1-{1-[4-(3-p-Toluenesulfonylaminopropoxy)benzoyl]-4-piperidinyl}-3,4-dihydrocarbostyril] and `O=C(c1ccc(OCCCCCNS(=O)(=O)c2ccc([N+](=O)[O-])cc2)cc1)N1CCC(N2C(=O)CCc3ccccc32)CC1` [Example 263, 1-{1-(4-[5-(4-Nitrophenylsulfonyl)aminopentyloxy]benzoyl)-4-piperidinyl}-3,4-dihydrocarbostyril] are within 0.2 log units of each other in pIC50: 6.31 for the first, 6.44 for the second.

`O=C(c1ccc(OCCCCCN2CCCCC2CO)cc1)N1CCC(N2C(=O)CCc3ccccc32)CC1` (stereo not drawn) [Example 241, 1-{1-(4-[5-(2-Hydroxymethyl-1-piperidinyl)pentyloxy]benzoyl)-4-piperidinyl}-3,4-dihydrocarbostyril] and `O=C(c1ccc(OCCCCCCC(O)CN2CCCC2)cc1)N1CCC(N2C(=O)CCc3ccccc32)CC1` (stereo not drawn) [Example 206, 1-(1-[4-(7-Hydroxy-8-(1-pyrrolidinyl)octyloxy)benzoyl]-4-piperidinyl)-3,4-dihydrocarbostyril] are within 0.2 log units of each other in pIC50: 7.68 for the first, 7.52 for the second.

First: O=C(CN1CCN(c2ccccc2)CC1)NCCCCCOc1ccc(C(=O)N2CCC(N3C(=O)CCc4ccccc43)CC2)cc1 [Example 255, 1-{1-(4-[5-(2-(4-Phenyl-1-piperazinyl)acetylamino)pentyloxy]benzoyl)-4-piperidinyl}-3,4-dihydrocarbostyril]
Second: C=CCN1CCN(CCCCOc2ccc(C(=O)N3CCC(N4C(=O)CCc5ccccc54)CC3)cc2)CC1 [Example 227, 1-{1-(4-[4-(4-Allyl-1-piperazinyl)butoxy]benzoyl)-4-piperidinyl)-3,4-dihydrocarbostyril]
The pIC50 of the first is 0.47 log units lower: 6.42 for the first, 6.89 for the second.

Compared with `O=C(c1ccc(OCCCCCS(=O)(=O)c2ccc([N+](=O)[O-])cc2)cc1)N1CCC(N2C(=O)CCc3ccccc32)CC1` [Example 285, 1-{1-(4-[5-(4-Nitrophenylsulfonyl)pentyloxy]benzoyl)-4-piperidinyl}-3,4-dihydrocarbostyril], `O=C(c1ccc(OCCCCCS(=O)(=O)c2ncccn2)cc1)N1CCC(N2C(=O)CCc3ccccc32)CC1` [Example 281, 1-(1-(4-[5-(2-Pyrimidylsulfonyl)pentyloxy]benzoyl)-4-piperidinyl}-3,4-dihydrocarbostyril] is 0.63 log units higher in pIC50: 6.64 for the first, 7.27 for the second. The second is the more potent here.

`O=C(c1ccc(OCCCCC(O)CN2CCCCC2)cc1)N1CCC(N2C(=O)CCc3ccccc32)CC1` (stereo not drawn) [Example 303, 1-{1-[4-(5-Hydroxy-6-(1-piperidinyl)hexyloxy)benzoyl]-4-piperidinyl}-3,4-dihydrocarbostyril] and `O=C(c1ccc(OCCCCC(O)CN2CCNCC2)cc1)N1CCC(N2C(=O)CCc3ccccc32)CC1` (stereo not drawn) [Example 173, 1-{1-[4-(5-Hydroxy-6-(1-piperazinyl)hexyloxy]benzoyl]-4-piperidinyl}-3,4-dihydrocarbostyril.dioxalate] are within 0.2 log units of each other in pIC50: 7.42 for the first, 7.41 for the second.

`COc1cc(Cl)ccc1C(=O)N1CCC(N2C(=O)CCc3ccccc32)CC1` [Example 54, 1-[1-(2-Methoxy-4-chlorobenzoyl)-4-piperidinyl]-3,4-dihydrocarbostyril] and `COc1ccc(C(=O)N2CCC(N3C(=O)CCc4ccccc43)CC2)c(N(C)C)c1` [Example 55, 1-[1-(2-Dimethylamino-4-methoxybenzoyl)-4-piperidinyl]-3,4-dihydrocarbostyril] are within 0.2 log units of each other in pIC50: 6.57 for the first, 6.70 for the second.

Going from `O=C(c1ccc2ccccc2c1)N1CCC(N2C(=O)CCc3ccccc32)CC1` [Example 116, 1-[1-(2-Naphthylcarbonyl)-4-piperidinyl]-3,4-dihydrocarbostyril] to `N=C(N)CCCOc1ccc(C(=O)N2CCC(N3C(=O)CCc4ccccc43)CC2)cc1` [Example 6, 1-{1-[4-(3-Amidinopropoxy)benzoyl]-4-piperidinyl}-3,4-dihydrocarbostyril], the pIC50 rises from 6.12 to 6.33 (0.21 log units). The second is the more potent here.

Compared with `CCN(CC)CC(O)COCCCCCOc1ccc(C(=O)N2CCC(N3C(=O)CCc4ccccc43)CC2)cc1` (stereo not drawn) [Example 190, 1-{1-[4-(5-(2-Hydroxy-3-diethylaminopropoxy)pentyloxy)benzoyl]-4-piperidinyl}-3,4-dihydrocarbostyril], `NC(=O)CC[C@H](NC(=O)CCCCCOc1ccc(C(=O)N2CCC(N3C(=O)CCc4ccccc43)CC2)cc1)C(N)=O` [Example 150, 1-{1-[4-(5-[1-(S),3-Dicarbamoyl]propylaminocarbonylpentyloxy)benzoyl]-4-piperidinyl}-3,4-dihydrocarbostyril] is 0.46 log units lower in pIC50: 7.48 for the first, 7.02 for the second. The first is the more potent here.

`CSCCC(NC(C)=O)C(=O)NCCCOc1ccc(C(=O)N2CCC(N3C(=O)CCc4ccccc43)CC2)cc1` (stereo not drawn) [Example 207, 1-(1-[4-(3-(2-Acetylamino-4-methylthiobutyrylamino)propoxy)benzoyl]-4-piperidinyl}-3,4-dihydrocarbostyril] and `CN(C)C(=O)C1CCN(C(=O)CCCCCOc2ccc(C(=O)N3CCC(N4C(=O)CCc5ccccc54)CC3)cc2)CC1` [Example 276, 1-{1-(4-[5-(4-Dimethylaminocarbonyl-1-piperidinylcarbonyl)pentyloxy]benzoyl)-4-piperidinyl}-3,4-dihydrocarbostyril] are within 0.2 log units of each other in pIC50: 7.15 for the first, 6.96 for the second.

First: O=C(c1ccc(C2CCCCC2)cc1)N1CCC(N2C(=O)CCc3ccccc32)CC1 [Example 112, 1-[1-(4-Cyclohexylbenzoyl)-4-piperidinyl]-3,4-dihydrocarbostyril]
Second: COc1ccc(C(=O)N2CCC(N3C(=O)CCc4ccccc43)CC2)c(OCCCO)c1 [Example 63, 1-{1-[2-(3-Hydroxypropoxy)-4-methoxybenzoyl]-piperidinyl}-3,4-dihydrocarbostyril]
The pIC50 of the first is 0.56 log units lower: 6.01 for the first, 6.57 for the second. The second is the more potent here.

`O=C(NCCCC[C@H](NC(=O)OCc1ccccc1)C(=O)NCCCOc1ccc(C(=O)N2CCC(N3C(=O)CCc4ccccc43)CC2)cc1)OCc1ccccc1` [Example 222, 1-[1-{4-[3-(S)-{N,N'76434 -Di(benzyloxycarbonyl)lysyl)aminopropoxy]benzoyl}-4-piperidinyl]-3,4-dihydrocarbostyril] gave a pIC50 of 6.19.

Same assay, conditions: [H]3-Arg-vasopressin 2×10^-10 M, rat liver plasma membrane, 37° C., 10 minutes, pH 8.0; read-out: IC50

Compound “1-[1-(4-Propargylbenzoyl)-4-piperidinyl]-3,4-dihydrocarbostyril [Example 96]” has a pIC50 of 6.22.

Same assay, conditions: read-out: IC50

`CCOc1ccc(C(=O)N2CCC(n3c(=O)ccc4ccccc43)CC2)c(OC)c1` [Example 82, 1-[1-(2-Methoxy-4-ethoxybenzoyl)-4-piperidinyl]carbostyril] showed a pIC50 of 6.48.
